PubChem BioAssay (NCI)
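Following 48 hours of exposure in 96-well plates, responses at five concentrations were used to interpolate endpoints linearly. GI50 marks 50% less growth. TGI: concentration producing complete growth inhibition.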

Assays:
Test in all cases: inhibition of tumour cell growth, NCI panel, 48 h
OVCAR-8 ovarian = tested on: OVCAR-8 ovarian
SK-OV-3 ovarian = tested on: SK-OV-3 ovarian
786-0 renal = tested on: 786-0 renal
HCT-116 colon = tested on: HCT-116 colon
NCI-H23 lung = tested on: NCI-H23 lung
HCT-15 colon = tested on: HCT-15 colon
NCI-H226 lung = tested on: NCI-H226 lung
SF-295 CNS = tested on: SF-295 CNS
NCI-H522 lung = tested on: NCI-H522 lung
UO-31 renal = tested on: UO-31 renal
U251 CNS = tested on: U251 CNS
EKVX NSCLC = tested on: EKVX NSCLC
SNB-75 CNS = tested on: SNB-75 CNS
SK-MEL-28 melanoma = tested on: SK-MEL-28 melanoma
HT29 colon = tested on: HT29 colon
A549 NSCLC = tested on: A549 NSCLC
OVCAR-5 ovarian = tested on: OVCAR-5 ovarian
HOP-62 NSCLC = tested on: HOP-62 NSCLC
MDA-MB-435 = tested on: MDA-MB-435
TK-10 renal = tested on: TK-10 renal
HCC-2998 colon = tested on: HCC-2998 colon
CAKI-1 renal = tested on: CAKI-1 renal
SNB-19 CNS = tested on: SNB-19 CNS
RPMI-8226 leukemia = tested on: RPMI-8226 leukemia
OVCAR-4 ovarian = tested on: OVCAR-4 ovarian
KM12 colon = tested on: KM12 colon
ACHN renal = tested on: ACHN renal
MALME-3M melanoma = tested on: MALME-3M melanoma
UACC-62 melanoma = tested on: UACC-62 melanoma
A498 renal = tested on: A498 renal
MCF7 breast = tested on: MCF7 breast
SK-MEL-5 melanoma = tested on: SK-MEL-5 melanoma
UACC-257 melanoma = tested on: UACC-257 melanoma
MOLT-4 leukemia = tested on: MOLT-4 leukemia
LOX IMVI melanoma = tested on: LOX IMVI melanoma
PC-3 prostate = tested on: PC-3 prostate
SK-MEL-2 melanoma = tested on: SK-MEL-2 melanoma
T-47D breast = tested on: T-47D breast
HS 578T breast = tested on: HS 578T breast
HL-60(TB) leukemia = tested on: HL-60(TB) leukemia
K-562 leukemia = tested on: K-562 leukemia
NCI/ADR-RES ovarian = tested on: NCI/ADR-RES ovarian
SW-620 colon = tested on: SW-620 colon
OVCAR-3 ovarian = tested on: OVCAR-3 ovarian
COLO 205 colon = tested on: COLO 205 colon
SF-268 CNS = tested on: SF-268 CNS
MDA-MB-231 breast = tested on: MDA-MB-231 breast
DU-145 prostate = tested on: DU-145 prostate
HOP-92 NSCLC = tested on: HOP-92 NSCLC
BT-549 breast = tested on: BT-549 breast
M14 melanoma = tested on: M14 melanoma
NCI-H460 lung = tested on: NCI-H460 lung
SN12C renal = tested on: SN12C renal
SF-539 CNS = tested on: SF-539 CNS

In the case of `COc1ccc(C(=O)/C=C/c2c(OC)cc(OC)cc2OC)c(OC)c1`, the GI50 (OVCAR-8 ovarian) was 4.91 µM, the TGI (OVCAR-8 ovarian) was > 100 µM and the GI50 (SK-OV-3 ovarian) was 27.9 µM. The TGI (SK-OV-3 ovarian) was > 100 µM, the GI50 (786-0 renal) was 15.4 µM and the TGI (786-0 renal) was > 100 µM. For the same molecule, the GI50 (HCT-116 colon) was 3.31 µM, the TGI (HCT-116 colon) was > 100 µM and the GI50 (NCI-H23 lung) was 3.09 µM. For the same molecule, the TGI (NCI-H23 lung) was > 100 µM, the GI50 (HCT-15 colon) was 2.42 µM and the TGI (HCT-15 colon) was > 100 µM. For the same molecule, the GI50 (NCI-H226 lung) was 21.3 µM, the TGI (NCI-H226 lung) was > 100 µM and the GI50 (SF-295 CNS) was 0.987 µM. The TGI (SF-295 CNS) was 5.31 µM, the GI50 (NCI-H522 lung) was 2.47 µM and the TGI (NCI-H522 lung) was > 100 µM. For the same molecule, the GI50 (UO-31 renal) was > 100 µM, the TGI (UO-31 renal) was > 100 µM and the GI50 (U251 CNS) was 3.95 µM. For the same molecule, the TGI (U251 CNS) was > 100 µM, the GI50 (EKVX NSCLC) was 4.2 µM and the TGI (EKVX NSCLC) was > 100 µM. The GI50 (SNB-75 CNS) was 3.26 µM, the TGI (SNB-75 CNS) was > 100 µM and the GI50 (SK-MEL-28 melanoma) was > 100 µM. For the same molecule, the TGI (SK-MEL-28 melanoma) was > 100 µM, the GI50 (HT29 colon) was 0.881 µM and the TGI (HT29 colon) was > 100 µM. The GI50 (A549 NSCLC) was 5.36 µM, the TGI (A549 NSCLC) was > 100 µM and the GI50 (OVCAR-5 ovarian) was > 100 µM. For the same molecule, the TGI (OVCAR-5 ovarian) was > 100 µM, the GI50 (HOP-62 NSCLC) was 11.8 µM and the TGI (HOP-62 NSCLC) was > 100 µM. The GI50 (MDA-MB-435) was 0.275 µM, the TGI (MDA-MB-435) was 0.947 µM and the GI50 (TK-10 renal) was 36.6 µM. For the same molecule, the TGI (TK-10 renal) was > 100 µM, the GI50 (HCC-2998 colon) was 2.51 µM and the TGI (HCC-2998 colon) was > 100 µM. The GI50 (CAKI-1 renal) was 1.44 µM, the TGI (CAKI-1 renal) was > 100 µM and the GI50 (SNB-19 CNS) was 8.37 µM. For the same molecule, the TGI (SNB-19 CNS) was > 100 µM, the GI50 (RPMI-8226 leukemia) was 5.8 µM and the TGI (RPMI-8226 leukemia) was > 100 µM. The GI50 (OVCAR-4 ovarian) was > 100 µM, the TGI (OVCAR-4 ovarian) was > 100 µM and the GI50 (KM12 colon) was 1.21 µM. The TGI (KM12 colon) was > 100 µM, the GI50 (ACHN renal) was 21.5 µM and the TGI (ACHN renal) was > 100 µM. For the same molecule, the GI50 (MALME-3M melanoma) was 7.44 µM, the TGI (MALME-3M melanoma) was > 100 µM and the GI50 (UACC-62 melanoma) was 1.32 µM. For the same molecule, the TGI (UACC-62 melanoma) was > 100 µM, the GI50 (A498 renal) was 2.23 µM and the TGI (A498 renal) was 8.87 µM. For the same molecule, the GI50 (MCF7 breast) was 3.85 µM, the TGI (MCF7 breast) was > 100 µM and the GI50 (SK-MEL-5 melanoma) was 1.51 µM. For the same molecule, the TGI (SK-MEL-5 melanoma) was > 100 µM, the GI50 (UACC-257 melanoma) was 36.6 µM and the TGI (UACC-257 melanoma) was > 100 µM. The GI50 (MOLT-4 leukemia) was > 100 µM, the TGI (MOLT-4 leukemia) was > 100 µM and the GI50 (LOX IMVI melanoma) was 3.7 µM. For the same molecule, the TGI (LOX IMVI melanoma) was > 100 µM, the GI50 (PC-3 prostate) was 4.6 µM and the TGI (PC-3 prostate) was > 100 µM. For the same molecule, the GI50 (SK-MEL-2 melanoma) was 5.52 µM, the TGI (SK-MEL-2 melanoma) was > 100 µM and the GI50 (T-47D breast) was 16.8 µM. For the same molecule, the TGI (T-47D breast) was > 100 µM, the GI50 (HS 578T breast) was 5.23 µM and the TGI (HS 578T breast) was > 100 µM. For the same molecule, the GI50 (HL-60(TB) leukemia) was 3.64 µM, the TGI (HL-60(TB) leukemia) was > 100 µM and the GI50 (K-562 leukemia) was 0.853 µM. For the same molecule, the TGI (K-562 leukemia) was > 100 µM, the GI50 (NCI/ADR-RES ovarian) was 0.78 µM and the TGI (NCI/ADR-RES ovarian) was > 100 µM. For the same molecule, the GI50 (SW-620 colon) was 0.911 µM, the TGI (SW-620 colon) was > 100 µM and the GI50 (OVCAR-3 ovarian) was 1.46 µM. For the same molecule, the TGI (OVCAR-3 ovarian) was 8.37 µM, the GI50 (COLO 205 colon) was 3.38 µM and the TGI (COLO 205 colon) was > 100 µM. The GI50 (SF-268 CNS) was 7.33 µM, the TGI (SF-268 CNS) was > 100 µM and the GI50 (MDA-MB-231 breast) was 5.76 µM. For the same molecule, the TGI (MDA-MB-231 breast) was > 100 µM, the GI50 (DU-145 prostate) was 3.21 µM and the TGI (DU-145 prostate) was > 100 µM. The GI50 (HOP-92 NSCLC) was 16.6 µM, the TGI (HOP-92 NSCLC) was 95.2 µM and the GI50 (BT-549 breast) was 83.8 µM. For the same molecule, the TGI (BT-549 breast) was > 100 µM, the GI50 (M14 melanoma) was 2.59 µM and the TGI (M14 melanoma) was > 100 µM. The GI50 (NCI-H460 lung) was 2.77 µM, the TGI (NCI-H460 lung) was > 100 µM and the GI50 (SN12C renal) was 7.24 µM. The TGI (SN12C renal) was > 100 µM, the GI50 (SF-539 CNS) was 2.7 µM and the TGI (SF-539 CNS) was > 100 µM.
